The structures appear in SMILES notation. A value given as a limit tells only on which side of the number the result lay.

Broadly, the IC50 is the midpoint of a concentration-inhibition curve.

The target in assay [1] is T1, Cdk2/cyclin E (Homo sapiens, UniProt P24941).
T1 construct: made in house; host or cells: Sf9 insect cells
The experiment in a line: Biochemical kinase assay Cdk2/cyclin E. As to conditions: Table 6. An excerpt:
(§1) Enzymes: Cdc2/cyclin B was obtained from commercial sources. Cdk2/his-cyclin Eshort was expressed in Sf9 cells. Cdk2/cyclin A, cdk4/cyclin D1, and cdk6/cyclin D2 were expressed in Sf9 cells. Protein kinase A (catalytic subunit, from bovine heart) and protein kinase C (mixed isozymes from rat brain) were obtained from commercial sources.
(§2) Substrates: Histone H1 was from commercial sources. GST-Rb is glutathione-S-trans-ferase fused to the N-terminal of residues 379-928 of the Rb protein.
(§3) Cdk2/cyclin E, Cdk2/cyclin A, Cdk4/cyclin D1, and Cdk6/cyclin D2 activity was determined using a glutathione-sepharose capture assay. The enzymes were expressed in Sf9 insect cells as heterodimers, and the substrate (GST-Rb) was glutathione-S-transferase fused to residues 379 to 928 of Rb retinoblastoma protein, expressed in E. coli. The assay solution contained 50 mM Tris.HCl, 10 mM MgCl2, 1 mM dithiothreitol, 50 μM adenosine triphosphate, 2 μCi [γ-^33P]adenosine triphosphate, 10% dimethylsulfoxide (from compounds), pH 7.5, 40 μg GST-Rb, and enzyme in a 100 μL volume. Compounds were added at various concentrations between 1 nM and 10 μM. The reaction was allowed to proceed for 15 min at 30° C. and was stopped by the addition of 70 μL of stop solution (237 mM disodium ethylene-diamine tetraacetate, 105 mM adenosine triphosphate, pH 8.0). The GST-Rb was captured by binding to glutathione-sepharose bead (Amersham) for 110 min, and the suspension was filtered through a glass fiber filter. After washing the retained beads five time with phosphate-buffered saline containing 0.3% (w/v) Tween-20, the amount of ^33P incorporated was determined by scintillation counting after adding 100 μL scintillant. Relative activity was determined by dividing the amount of radioactivity incorporated in the presence of compound by the amount of radioactivity incorporated in a control experiment containing DMSO alone but no compound. The background radioactivity, determined in an experiment containing 50 mM disodium ethylenediamine tetraacetate in place of compound, was subtracted from all results before calculations.

In assay [2] the target is T2, Cdc2/cyclin B (Homo sapiens, UniProt P06493).
T2 construct: purchased
T2 sequence (P06493 whole entry, species assumed): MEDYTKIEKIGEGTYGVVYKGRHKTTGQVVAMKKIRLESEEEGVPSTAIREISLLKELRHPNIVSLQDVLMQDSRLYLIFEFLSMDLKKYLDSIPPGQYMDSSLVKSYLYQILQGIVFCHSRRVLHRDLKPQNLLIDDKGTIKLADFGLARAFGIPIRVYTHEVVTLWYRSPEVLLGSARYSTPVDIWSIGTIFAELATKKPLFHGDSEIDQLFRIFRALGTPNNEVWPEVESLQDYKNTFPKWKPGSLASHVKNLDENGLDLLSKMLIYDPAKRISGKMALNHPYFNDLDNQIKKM
T2 sequence (P14635 whole entry partner, species assumed): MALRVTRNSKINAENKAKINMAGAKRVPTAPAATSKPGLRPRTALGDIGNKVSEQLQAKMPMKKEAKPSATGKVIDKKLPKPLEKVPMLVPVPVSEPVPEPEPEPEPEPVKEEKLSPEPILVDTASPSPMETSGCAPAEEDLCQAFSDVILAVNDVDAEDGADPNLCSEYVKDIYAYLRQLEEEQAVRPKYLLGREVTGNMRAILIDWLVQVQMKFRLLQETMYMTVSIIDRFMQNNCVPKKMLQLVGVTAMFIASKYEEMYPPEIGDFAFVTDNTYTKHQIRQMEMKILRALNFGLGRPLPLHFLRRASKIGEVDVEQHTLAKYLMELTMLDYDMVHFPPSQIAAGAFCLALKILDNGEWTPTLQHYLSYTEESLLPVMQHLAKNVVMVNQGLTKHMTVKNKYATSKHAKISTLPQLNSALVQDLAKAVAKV
Kind of assay: Biochemical kinase assay Cdc2/cyclin B. The following applies: Table 6.
From the text: as §1, §2
Assays: Cdc2/cyclinB activity was determined by measuring incorporation of radio-activity from adenosine [γ-^32P]triphosphate into Histone H1 using a TCA precipitation assay. Cdc2/cyclin B kinase and Histone H1 were obtained from commercial sources. The final assay solution contained 50 mM Tris.HCl, 10 mM MgCl2, 1 mM dithiothreitol, 50 μM adenosine triphosphate, 2 μCi ^32P, 10% dimethylsulfoxide (from compounds), pH 7.5, 20 μg Histone H1, 6 U enzyme in a 50 μL volume. Compounds were added at various concentrations between 1 nM and 10 μM. The reaction was started with the addition of enzyme, allowed to proceed for 20 min at 30° C., and stopped by the addition of 20 μL of stop solution (237 mM disodium ethylenediamine tetraacetate, 105 mM adenosine triphosphate, pH 8.0). The protein was precipitated by the addition of 35 μL 70% (w/v) trichloroacetic acid, and the precipitate was captured on a 96-well glass fiber filter plate (Millipore, Inc.), which had been wet with 25% (w/v) trichloroacetic acid. The filter was washed ten times with 25% (w/v) trichloroacetic acid, and the amount of incorporated ^32P was determined by scintillation counting after adding 100 μL scintillant (Microscint 20, Packard Instruments). Relative activity was determined by dividing the amount of radioactivity incorporated in the presence of compound by the amount of radioactivity incorporated in a control experiment containing DMSO alone but no compound. The background radioactivity, determined in an experiment containing 50 mM EDTA in place of compound, was subtracted from all results before calculations.

The target of assay [3] is T3, Cdk4/cyclin D1 (Homo sapiens, UniProt P11802).
T3 construct: made in house; host or cells: Sf9 insect cells
T3 sequence (P11802 whole entry, species assumed): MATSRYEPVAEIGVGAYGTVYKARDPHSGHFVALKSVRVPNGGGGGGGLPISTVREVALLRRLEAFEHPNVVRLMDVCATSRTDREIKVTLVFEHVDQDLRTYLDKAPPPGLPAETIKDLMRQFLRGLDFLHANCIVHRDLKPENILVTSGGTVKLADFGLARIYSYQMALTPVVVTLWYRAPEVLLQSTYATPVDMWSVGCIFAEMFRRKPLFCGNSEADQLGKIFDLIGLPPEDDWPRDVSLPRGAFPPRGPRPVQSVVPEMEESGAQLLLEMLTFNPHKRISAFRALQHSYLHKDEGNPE
T3 sequence (P24385 whole entry partner, species assumed): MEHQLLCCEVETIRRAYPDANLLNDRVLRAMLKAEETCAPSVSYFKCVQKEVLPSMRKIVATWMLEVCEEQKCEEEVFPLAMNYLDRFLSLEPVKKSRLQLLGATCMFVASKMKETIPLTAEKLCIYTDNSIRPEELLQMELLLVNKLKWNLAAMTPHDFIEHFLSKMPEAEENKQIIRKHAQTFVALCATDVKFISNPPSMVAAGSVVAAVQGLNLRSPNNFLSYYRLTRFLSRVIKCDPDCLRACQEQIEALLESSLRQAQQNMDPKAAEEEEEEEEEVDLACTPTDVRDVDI
The experiment in a line: Biochemical kinase assay Cdk4/cyclin D1. As to conditions: Table 6.
From the text: as §1, §2, §3

For assay [4], the system named is HCT-116 cells. The experiment in a line: Calcein AM viability assay, HCT-116. The class given is cell-based. As to conditions: Homo sapiens, HCT-116, non-protein adjusted, Table 6; read-out: HCT-116 viability IC50. Here is the method:
The potency of Cdk inhibitors, as measured by loss of cellular viability, was determined with the Calcein AM assay (Molecular Probes). Calcein AM is a substrate of intracellular esterases, which is cleaved only in viable cells to generate a fluorescent product that can be quantified with a fluorescent plate reader. The fluorescent signal is proportional to the number of viable cells, and thus loss of signal in response to the exposure of cells to Cdk inhibitors correlates with a loss of viability. This assay can distinguish cell cycle arrest, in which cells may still by viable, from loss of viability and is thus well suited for the evaluation of Cdk inhibitors. A compound that is a potent cytotoxic, may cause significant loss of cell viability in such assay.
Cellular IC50's were determined in the human colorectal carcinoma cell line, HCT-116, and the normal human fibroblast, IMR90. Protein adjusted IC50's were also determined in HCT-116.
HCT-116 or IMR90 cells were recovered from sub-confluent plates by trypsinization and 1,000 or 4,000 cells, respectively, were plated in 24-well dishes and incubated overnight at 37° C., 5% CO2. HCT-116 cells were cultured in RPMI-1640, 10% FCS, and IMR90 cells were cultured in Minimum Essential Medium-alpha, 10% FCS. After overnight incubation to allow adherence, the media was aspirated from each well and replaced with media containing a test compound at a concentration from 0 to 250 nM, spanning a total of 7 doses. The plates were returned to the incubator and cultured for an additional 72 hours (3 days). […] After 72-hours incubation with the test compound, the cells were washed twice with 1×PBS, taking special care to remove all residual buffer.
A 5 μM Calcein AM solution was prepared by dissolving a […] aliquot of Calcein (Molecular Probes catalog # C3100) in 50 μl DMSO. After the Calcein had completely dissolved (10 minutes at room temperature), it was diluted into 10 ml PBS. Calcein/PBS (0.5 ml) was added to each well. The plates were incubated for 75 minutes at 37° C. (protected from light) and the fluorescent signal was read on a fluorescent plate reader (excitation 485/20 and emission 530/25).

In the case of `CC(C)c1nn(-c2c(Cl)cc(Cl)cc2Cl)c2nc(Cc3ccc(CN4CCN(C(C)C)CC4)n3C)[nH]c(=O)c12` [Compound A42], the 50% inhibitory concentration (IC50) in assay [1] was under 0.1 µM; in assay [2] it was under 1 µM; in assay [3], under 1 µM; in assay [4], under 0.1 µM.

On to `CC(C)c1nn(-c2c(Cl)cccc2Cl)c2nc(Cc3ccc(OCCOP(=O)(O)O)cc3)[nH]c(=O)c12` [Compound A62], for which the IC50 in assay [1] was under 0.1 µM; in assay [2] it was under 0.1 µM; in assay [3], under 10 µM; in assay [4], under 0.1 µM.

On to `CC(C)c1nn(-c2c(Cl)cccc2Cl)c2nc(Cc3ccc(OCCN4CCOCC4)cc3)[nH]c(=O)c12` [Compound A2], for which the IC50 in assay [1] is under 0.01 µM; in assay [2] it was under 1 µM; in assay [3], under 10 µM; in assay [4] it was under 0.1 µM.

For the compound `CCN1CCN(S(=O)(=O)c2cc(Cl)c(-n3nc(C(C)C)c4c(=O)[nH]c(Cc5ccc(OCCN6CCOCC6)cc5)nc43)c(Cl)c2)CC1` [Compound A53], the half-inhibitory concentration (IC50) in assay [1] is under 1 µM; in assay [2], under 1 µM; in assay [3], under 10 µM; in assay [4], under 0.01 µM.

`CC(C)c1nn(-c2c(Cl)cc(S(N)(=O)=O)cc2Cl)c2nc(Cc3ccc(OCCN4CCOCC4)cc3)[nH]c(=O)c12` [Compound A54]: the IC50 in assay [1] is under 0.01 µM; in assay [2] it was under 0.01 µM; in assay [3] it was under 1 µM; in assay [4], under 0.1 µM.

`CC(C)c1nn(-c2c(Cl)cccc2Cl)c2nc(Cc3ccc(CN4CCN(C(C)C)CC4)c(O)c3)[nH]c(=O)c12` [Compound A50]: the results for the IC50 in assay [1], in assay [2] and in assay [4] were under 0.1 µM, under 1 µM and under 0.1 µM, respectively.

On to `COCCOc1ccc(Cc2nc3c(c(C(C)C)nn3-c3c(Cl)cccc3Cl)c(=O)[nH]2)cc1` [Compound A66], for which the IC50 in assay [1] is under 0.1 µM; in assay [2], under 0.1 µM; in assay [3], under 10 µM; in assay [4] it was under 0.1 µM.

Take `CC(C)c1nn(-c2c(Cl)cccc2Cl)c2nc(Cc3ccc(OCC(C)(C)O)cc3)[nH]c(=O)c12` [Compound A63]: the IC50 in assay [1] is under 0.1 µM; in assay [2], under 0.1 µM; in assay [3], under 1 µM; in assay [4], under 0.1 µM.

`CCN(CCO)S(=O)(=O)c1cc(Cl)c(-n2nc(C(C)C)c3c(=O)[nH]c(Cc4ccc(OCCN5CCOCC5)cc4)nc32)c(Cl)c1` [Compound A55]: the IC50 in assay [1] is under 0.1 µM; in assay [2], under 0.1 µM; in assay [3] it was under 10 µM; in assay [4], under 0.1 µM.

Turning to `CC(C)c1nn(-c2c(Cl)cccc2Cl)c2nc(Cc3ccc(C(=O)NOCCN4CCOCC4)cc3)[nH]c(=O)c12` [Compound A52], the concentration for half-maximal inhibition (IC50) in assay [1] is under 0.1 µM; in assay [2] it was under 1 µM; in assay [3], under 1 µM; in assay [4] it was under 0.1 µM.

For the compound `CC(C)c1nn(-c2c(Cl)cc(Cl)cc2Cl)c2nc(Cc3ccc(NS(=O)(=O)CCCN4CCCCC4)cc3)[nH]c(=O)c12` [Compound A48], the figures for the IC50 in assay [1], in assay [2] and in assay [4] were under 0.1 µM, under 1 µM and under 0.1 µM, respectively.

Turning to `CC(C)c1nn(-c2c(Cl)cc(Cl)cc2Cl)c2nc(Cc3ccc(OCCN4CCN(C(C)C)CC4)cc3)[nH]c(=O)c12` [Compound A1], the IC50 was under 0.01 µM in assay [1], under 0.1 µM in assay [2], under 1 µM in assay [3] and under 0.1 µM in assay [4].

Regarding `CC(C)c1nn(-c2c(Cl)cccc2Cl)c2nc(Cc3ccc(NS(=O)(=O)CCCN4CCOCC4)cc3)[nH]c(=O)c12` [Compound A30], the IC50 is under 0.1 µM in assay [1], under 1 µM in assay [2], under 1 µM in assay [3] and under 0.1 µM in assay [4].

Regarding `CC(C)N1CCN(C(=O)COc2ccc(-c3[nH]nc4c3C(=O)c3c(NC(=O)NN5CCOCC5)cccc3-4)cc2)CC1` [Compound A76], the IC50 in assay [1], in assay [2], in assay [3] and in assay [4] was under 0.1 µM in each case.

Regarding `CC(C)c1nn(-c2c(Cl)cccc2Cl)c2nc(Cc3ccc(O)c(CN4CCOCC4)c3)[nH]c(=O)c12` [Compound A5], the IC50 in assay [1] was under 0.1 µM; in assay [2], under 1 µM; in assay [3], under 10 µM; in assay [4], under 0.1 µM.

Take `CC(C)c1nn(-c2c(Cl)cc(Cl)cc2Cl)c2nc(Cc3ccc(CN4CCCC4)n3C)[nH]c(=O)c12` [Compound A43]: the IC50 was under 0.1 µM in assay [1], under 1 µM in assay [2], under 1 µM in assay [3] and under 0.1 µM in assay [4].

With `CC(C)c1nn(-c2c(Cl)cccc2Cl)c2nc(Cc3ccc(O)cc3)[nH]c(=O)c12` [Compound A4], the IC50 in assay [1] is under 0.01 µM; in assay [2], under 0.1 µM; in assay [3], under 0.1 µM; in assay [4], under 0.1 µM.

The record behind these values is patent US7605175B2, “Inhibitors of cyclin-dependent kinases, compositions and uses related thereto” (GPC Biotech AG, priority 2001, dated 2009).
